Activity calls are given as the source filed them. The rule behind the calls is not given here.
Columns and labels:
HL-60 [1] = assay: Cytotoxicity against human HL60 cells by MTT assay; format: functional, cell-based
HL-60 [2] = assay: Induction of apoptosis in human HL60 cells assessed as DNA accumulation at sub-G1 phase at IC50 concentration after 24 hrs by flow cytometry; format: functional
HL-60 [3] = assay: Induction of apoptosis in human HL60 cells assessed as increase of apoptotic bodies at IC50 concentration after 24 hrs using Hoechst 33342 staining by fluorescent microscopic analysis; format: functional, cell-based
HaCaT = assay: Inhibition of ultraviolet-B-induced apoptosis in human HaCaT cells; format: functional, cell-based

Row | Compound | IC50 (HL-60 [1]) | Activity (HL-60 [2]) | Activity (HL-60 [3]) | Activity (HaCaT)
1 | C=C(C)C(=O)CC[C@](C)(O[C@@H]1O[C@H](CO)[C@@H](O)[C@H](O)[C@H]1O)[C@H]1CC[C@]2(C)[C@@H]1[C@H](O)C[C@@H]1[C@@]3(C)CC[C@H](O)C(C)(C)[C@@H]3[C@@H](O)C[C@]12C [FLORALGINSENOSIDE TA] | 36.3 µM | 29.8% | Active | –
2 | COC(CC[C@](C)(O[C@@H]1O[C@H](CO)[C@@H](O)[C@H](O)[C@H]1O)[C@H]1CC[C@]2(C)[C@@H]1[C@H](O)C[C@@H]1[C@@]3(C)CC[C@H](O)C(C)(C)[C@@H]3[C@@H](O)C[C@]12C)OC [FLORALGINSENOSIDE TB] | 100 µM | – | – | –
3 | C=C(C)C(CC[C@](C)(O[C@@H]1O[C@H](CO[C@@H]2OC[C@H](O)[C@H](O)[C@H]2O)[C@@H](O)[C@H](O)[C@H]1O)[C@H]1CC[C@]2(C)[C@@H]1[C@H](O)C[C@@H]1[C@@]3(C)CC[C@H](O[C@@H]4O[C@H](CO[C@@H]5O[C@H](CO)[C@@H](O)[C@H](O)[C@H]5O)[C@@H](O)[C@H](O)[C@H]4O)C(C)(C)[C@@H]3[C@@H](O)C[C@]12C)OO (some centres undefined) [FLORALGINSENOSIDE TC] | 100 µM | – | – | –
4 | C=C(C)C(CC[C@](C)(O[C@@H]1O[C@H](COC2OC[C@H](O)[C@H](O)[C@H]2O)[C@@H](O)[C@H](O)[C@H]1O)[C@H]1CC[C@]2(C)[C@@H]1[C@H](O)C[C@@H]1[C@@]3(C)CC[C@H](O[C@@H]4O[C@H](COC5O[C@H](CO)[C@@H](O)[C@H](O)[C@H]5O)[C@@H](O)[C@H](O)[C@H]4O)C(C)(C)[C@@H]3[C@@H](O)C[C@]12C)OO (some centres undefined) [FLORALGINSENOSIDE TD] | 100 µM | – | – | –
5 | CC(C)=CCC[C@](C)(O[C@@H]1O[C@H](CO)[C@@H](O)[C@H](O)[C@H]1O)[C@H]1CC[C@]2(C)[C@@H]1[C@H](O)C[C@@H]1[C@@]3(C)CC[C@H](O)C(C)(C)[C@@H]3[C@@H](O)C[C@]12C [GINSENOSIDE F1] | 23.2 µM | 19.2% | Active | Active
6 | CC(C)=CCC[C@](C)(O[C@@H]1O[C@H](CO[C@H]2O[C@H](CO)[C@@H](O)[C@@H]2O)[C@@H](O)[C@H](O)[C@H]1O)[C@H]1CC[C@]2(C)[C@@H]1[C@H](O)C[C@@H]1[C@@]3(C)CC[C@H](O)C(C)(C)[C@@H]3[C@@H](O)C[C@]12C [GINSENOSIDE F5] | 62.4 µM | 21.4% | Active | –
7 | O=C1c2c(O)ccc(O)c2C(=O)c2c(NCCNCCO)ccc(NCCNCCO)c21 [MITOXANTRONE] | 6.8 µM | – | – | –
